The values below are quoted from earlier work in US9155756B2, “Method for the prevention and treatment of sepsis” (Universiteit Maastricht, priority 2011, dated 2015).

Data set [1] deals with patients with septic shock. The following applies: low dose for 5-7 days.
The subject of data set [2] is patients with severe sepsis.

As for `C[C@]12CCC(=O)C=C1CC[C@@H]1[C@@H]2[C@@H](O)C[C@@]2(C)[C@H]1CC[C@]2(O)C(=O)CO` [hydrocortisone], the Clinical outcome in data set [1] is reported as “improved outcomes”.
drotrecogin alfa: in data set [2] (patients with multi-organ failure, large randomized clinical trials), the “Number needed to treat (NNT) for reduced mortality” value is listed as 16. Besides, the Mortality result in data set [2] (severe sepsis, decreased from about 31%) is reported as “about 25%”.
